Ends that are not written are not given here.
Tests used:
BMP-2 = target: T1, BMP-2 (Homo sapiens, UniProt P12643); test: ELISA of BMP-2 bound to biotinylated peptides immobilized on streptavidin plates; type: binding; conditions: FIG. 14A; BMP-2 200 nM, 20 nM and 2 nM, 45 minutes
T1 sequence (P12643 283-396): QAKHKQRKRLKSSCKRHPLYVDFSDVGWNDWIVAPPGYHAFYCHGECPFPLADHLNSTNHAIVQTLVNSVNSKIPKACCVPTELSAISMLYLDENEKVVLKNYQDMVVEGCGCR
Experimental: BMP binding peptides SEQ ID NOs:1-4 & 8-10 were identified as described in US Patent Application Publication No. US20060051395A1. Briefly, the peptides were identified by phage display using immobilized BMP-2 as a substrate for the phage library selections. Synthetic peptides SEQ ID NOs: 1-2 were determined to bind to BMP-2 with a relative EC50 value of 0.8 nM and 0.9 nM, respectively (data not shown). Separately, the relative binding affinity of peptides SEQ ID NOs: 1-2 for BMP-2 is shown in FIG. 14A (SEQ ID NO: 1 is denoted as P9 and SEQ ID NO: 2 is denoted as P10). Briefly, the results shown in FIG. 14A were generated by immobilizing biotinylated BMP binding peptides SEQ ID NOs:1 & 2 on streptavidin coated plates. Serial dilutions of 200 nM, 20 nM and 2 nM of BMP-2 were incubated with the immobilized BMP binding peptides for 45 minutes, washed, and bound BMP quantified using ELISA.

BMP-7 = target: T2, BMP-7 (Homo sapiens, UniProt P18075); test: ELISA of BMP-7 bound to immobilized BMP binding peptides; conditions: FIG. 14B
T2 sequence (P18075 293-431): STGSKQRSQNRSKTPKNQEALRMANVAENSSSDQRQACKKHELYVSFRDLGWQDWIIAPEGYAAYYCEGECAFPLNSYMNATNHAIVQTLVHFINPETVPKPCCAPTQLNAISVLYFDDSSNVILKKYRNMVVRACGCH

C2C12 cells = test: Alkaline phosphatase secretion by C2C12 cells in response to BMP-2 with BMP binding peptide in solution; type: cell-based; conditions: peptide 0-3500 nM, 3 days, FIG. 16
Experimental: In an experiment to test the biological activity of BMP-2 delivered by BMP binding peptide, alkaline phosphatase secreted by C2C12 cells in response to BMP-2 was measured in the presence and absence of BMP binding peptide in solution. C2C12 cells were incubated with BMP-2 (35 nM) and BMP binding peptide at a concentration ranging from 0-3500 nM. The C2C12 cells were incubated with the BMP-2 and BMP binding peptide for 3 days and the alkaline phosphatase assay was performed as described herein above.

rat calvarial defect = test: Rat calvarial defect model of bone healing (μCT and histology); type: in vivo; conditions: conclusion from saline-hydrated groups
Experimental: The ability of each of the bone void filler collagen/TCP composites (unmodified and BMP binding peptide modified at 5-15 μmol peptide/g collagen described in Example 5) to speed bone healing was assessed in a rat calvarial defect model. A defect was introduced into male Sprague Dawley rats (n=8) as described previously (Poehling, et. al, J Periodontol, 2006, 77:1582-90). A full thickness circular defect, 6.8 mm in diameter, was made in the parietal bone, centered across the midline. The disc of bone was removed, and the void was filled with bone graft substitute material hydrated with or without BMA harvested from the tibia (saline was used for hydration without BMA). […] The calvaria were removed and analyzed by micro-computed tomography (μCT) to provide measurements of bone density (SCANCO MEDICAL; Wayne, Pa.). […] For each sample, 6 sections evenly distributed across the defect were scored by two independent observers, blind to the treatment groups. The slides were scored for osteogenic cellular activity, new bone area, and new bone maturity according to the following procedure. For osteogenic cellular activity, fibroblasts/loose connective tissue, immature cartilage progenitors, immature bone progenitors, giant cells, osteoclasts, osteoblasts, and osteocytes were counted and scored according to the following scale: 1=Rare; 2=Few; 3=Moderate; and 4=Dense. […]

Substance | relative affinity for BMP-2 (BMP-2) | relative affinity for BMP-7 (BMP-7) | effect on BMP-2 biological activity (alkaline phosphatase secretion) (C2C12 cells; BMP-2 35 nM) | BMP-2 activity of the peptide on its own (alkaline phosphatase secretion) (C2C12 cells) | bioactivity of the peptide itself in bone formation (rat calvarial defect)
GGALGFPLKGEVVEGWA-NH2 (C-terminus assumed) [SEQ ID NO: 2] | high relative affinity | high relative affinity | does not interfere with the biological activity of BMP-2 | does not have BMP-2 activity on its own | does not possess bioactivity itself
GGGAWEAFSSLSGSRV-NH2 (C-terminus assumed) [SEQ ID NO: 1] | high relative affinity | high relative affinity |  |  | 

Source: patent publication US20110117166A1, “IMPLANTABLE BONE GRAFT MATERIALS” (AFFINERGY, INC., priority 2009, published 2011)
